One assay deals with E. coli DNA gyrase (Escherichia coli (strain K12), UniProt P0AES6). Kind of assay: DNA gyrase inhibition assay (Inspiralis, streptavidin-coated plates). The class given is biochemical. Here is the method: Inhibitory activities for compounds of the present invention were determined on E. coli and S. aureus DNA gyrase and topoisomerase IV in an assay from Inspiralis on streptavidin-coated 96-well microtiter plates from Thermo scientific Pierce. […] After washing off the unbound oligonucleotide, the enzyme test was performed. […] Reaction solutions were incubated at 37° C. for 30 min. After that, the TF buffer (50 mM NaOAc with pH 5.0, 50 mM NaCl and 50 mM MgCl2) was added to terminate the enzymatic reaction. After additional incubation for 30 min at rt, during which biotin-oligonucleotide-plasmid triplex was formed, the unbound plasmid was washed off using TF buffer and SybrGOLD in T10 buffer (10 mM Tris HCl with pH 8.0 and 1 mM EDTA) was added. […] GraphPad Prism 6.0 software was used to calculate the IC50 values. The result is given as the average value of three independent measurements. […] Chemoth.

A further assay relates to E. faecalis ATCC 29212. The experiment in a line: Microbroth dilution MIC (CLSI). Conditions: Enterococcus faecalis, ATCC29212, read-out: MIC (μg/mL) E. faecalis ATCC 29212. On the technique in general: Dilution methods test growth across graded concentrations, often in twofold steps.
A further assay deals with S. aureus ATCC 29213. Kind of assay: Microbroth dilution MIC (CLSI). The conditions noted are these: Staphylococcus aureus, ATCC29213, read-out: MIC (μg/mL) S. aureus ATCC 29213.
Another assay deals with E. faecium ATCC 35667. The experiment in a line: Microbroth dilution MIC (CLSI). Conditions: Enterococcus faecium, ATCC35667, read-out: MIC (μg/mL) E. faecium ATCC 35667.
Another assay has as its system E. coli ATCC 25922. The experiment in a line: Microbroth dilution MIC (CLSI). The conditions noted are these: Escherichia coli, ATCC25922, read-out: MIC (μg/mL) E. coli ATCC 25922.

Data on 17 compounds can be found in patent US12258342B2, “Class of DNA gyrase and/or topoisomerase IV inhibitors with activity against gram-positive and gram-negative bacteria” (Univerza v Ljubljani, priority 2018, dated 2025).

Converted amounts (≈) assume the structure as drawn.

As to `O=C(O)c1ccc2nc(NC(=O)c3cc(Br)c(Br)[nH]3)sc2c1` [Example 2, 2-(4,5-dibromo-1H-pyrrole-2-carboxamido)benzo[d]thiazole-6-carboxylic acid], half-maximal inhibition on E. coli DNA gyrase (IC50) was put at 12 ± 7 nM. Also, the MIC in the assay with E. faecalis ATCC 29212 was 2.78 µg/mL (≈ 6.25 µM); with S. aureus ATCC 29213 it was greater than 64 µg/mL; in the assay with E. faecium ATCC 35667 it was 5.56 µg/mL (≈ 12.5 µM); with E. coli ATCC 25922, greater than 64 µg/mL.

With `Cc1[nH]c(C(=O)Nc2nc3c(OCCN4CCOCC4)cc(C(=O)NCC#N)cc3s2)c(Cl)c1Cl.Cl` [Example 25, 4-(2-((6-((cyanomethyl)carbamoyl)-2-(3,4-dichloro-5-methyl-1H-pyrrole-2-carboxamido)benzo[d]thiazol-4-yl)oxy)ethyl)morpholin-4-ium chloride], the IC50 (in general, the concentration that inhibits the measured activity by half) against E. coli DNA gyrase is less than 5 nM. The MIC in the assay on E. faecalis ATCC 29212, with S. aureus ATCC 29213 and in the assay with E. coli ATCC 25922 was greater than 64 µg/mL throughout.

In turn, `Cc1[nH]c(C(=O)Nc2nc3ccc(C(=O)NCC#N)cc3s2)c(Cl)c1Cl` [Example 26, N-(cyanomethyl)-2-(3,4-dichloro-5-methyl-1H-pyrrole-2-carboxamido)benzo[d]thiazole-6-carboxamide] came in with a 50% inhibitory concentration (IC50) on E. coli DNA gyrase of 16 ± 4 nM. In addition, the MIC with E. faecalis ATCC 29212, with S. aureus ATCC 29213 and in the assay on E. coli ATCC 25922 was greater than 64 µg/mL in each case.

As to `Cc1[nH]c(C(=O)Nc2nc3c(OCc4ccccc4)cc(C(=O)NCC#N)cc3s2)c(Cl)c1Cl` [Example 27, 4-(benzyloxy)-N-(cyanomethyl)-2-(3,4-dichloro-5-methyl-1H-pyrrole-2-carboxamido)benzo[d]thiazole-6-carboxamide], the IC50 at E. coli DNA gyrase came out at 5.4 ± 2 nM. In addition, the MIC with E. faecalis ATCC 29212 is 16 µg/mL (≈ 31.1 µM); in the assay with S. aureus ATCC 29213, 4 µg/mL (≈ 7.78 µM); in the assay with E. coli ATCC 25922 it was greater than 64 µg/mL.

For the compound `Cc1[nH]c(C(=O)Nc2nc3c(OCc4ccccc4)cc(C(N)=O)cc3s2)c(Cl)c1Cl` [Example 28, 4-(benzyloxy)-2-(3,4-dichloro-5-methyl-1H-pyrrole-2-carboxamido)benzo[d]thiazole-6-carboxamide], the IC50 against E. coli DNA gyrase worked out at 11 ± 2 nM. Also, the MIC in the assay with E. faecalis ATCC 29212, with S. aureus ATCC 29213 and in the assay on E. coli ATCC 25922 was greater than 64 µg/mL each time.

As to `Cc1[nH]c(C(=O)Nc2nc3c(OCc4ccccc4)cc(-c4nnn[nH]4)cc3s2)c(Cl)c1Cl` [Example 29, N-(4-(benzyloxy)-6-(1H-tetrazol-5-yl)benzo[d]thiazol-2-yl)-3,4-dichloro-5-methyl-1H-pyrrole-2-carboxamide], the MIC was 0.125 µg/mL (≈ 0.25 µM) in the assay on E. faecalis ATCC 29212, 4 µg/mL (≈ 7.99 µM) in the assay with S. aureus ATCC 29213 and greater than 64 µg/mL in the assay on E. coli ATCC 25922.

`COC(=O)c1cc(N2CC[C@H](NC(=O)OC(C)(C)C)C2)c2nc(NC(=O)c3[nH]c(C)c(Cl)c3Cl)sc2c1` [Example 33, methyl (S)-4-(3-((tert-butoxycarbonyl)amino)pyrrolidin-1-yl)-2-(3,4-dichloro-5-methyl-1H-pyrrole-2-carboxamido)benzo[d]thiazole-6-carboxylate] came in with an IC50 on E. coli DNA gyrase greater than 10000 nM. In addition, the MIC in the assay on E. faecalis ATCC 29212, in the assay on S. aureus ATCC 29213 and in the assay with E. coli ATCC 25922 was no less than 32 µg/mL each time.

At E. coli DNA gyrase, `COC(=O)c1cc(N2CC[C@H](N)C2)c2nc(NC(=O)c3[nH]c(C)c(Cl)c3Cl)sc2c1.Cl` [Example 34, (S)-1-(2-(3,4-dichloro-5-methyl-1H-pyrrole-2-carboxamido)-6-(methoxycarbonyl)benzo[d]thiazol-4-yl)pyrrolidin-3-aminium chloride] had a half-maximal inhibitory concentration (IC50) of 48 ± 9 nM. In addition, the MIC in the assay with E. faecalis ATCC 29212, with S. aureus ATCC 29213 and in the assay with E. coli ATCC 25922 was no less than 32 µg/mL each time.

In the case of `Cc1[nH]c(C(=O)Nc2nc3c(N4CC[C@H](NC(=O)OC(C)(C)C)C4)cc(C(=O)O)cc3s2)c(Cl)c1Cl` [Example 35, (S)-4-(3-((tert-butoxycarbonyl)amino)pyrrolidin-1-yl)-2-(3,4-dichloro-5-methyl-1H-pyrrole-2-carboxamido)benzo[d]thiazole-6-carboxylic acid], the IC50 on E. coli DNA gyrase is less than 5 nM. For the same compound, the results for the MIC in the assay with E. faecalis ATCC 29212, with S. aureus ATCC 29213 and with E. coli ATCC 25922 were 0.0312 µg/mL (≈ 0.0564 µM), 0.25 µg/mL (≈ 0.451 µM) and no less than 32 µg/mL, respectively.

`Cc1[nH]c(C(=O)Nc2nc3c(N4CC[C@H](N)C4)cc(C(=O)O)cc3s2)c(Cl)c1Cl.Cl` [Example 36, (S)-1-(6-carboxy-2-(3,4-dichloro-5-methyl-1H-pyrrole-2-carboxamido)benzo[d]thiazol-4-yl)pyrrolidin-3-aminium chloride] displayed an IC50 against E. coli DNA gyrase of less than 5 nM. In addition, the figures for the MIC in the assay on E. faecalis ATCC 29212, in the assay on S. aureus ATCC 29213 and with E. coli ATCC 25922 were 0.5 µg/mL, 4 µg/mL and no less than 32 µg/mL, respectively.

With `O=C(O)c1cc(OCc2cc(=O)c(O)c[nH]2)c2nc(NC(=O)c3cc(Br)c(Br)[nH]3)sc2c1` [Example 38, 2-(4,5-dibromo-1H-pyrrole-2-carboxamido)-4-((5-hydroxy-4-oxo-1,4-dihydropyridin-2-yl)methoxy)benzo[d]thiazole-6-carboxylic acid], the MIC with E. faecalis ATCC 29212, in the assay with S. aureus ATCC 29213 and in the assay with E. coli ATCC 25922 was greater than 64 µg/mL throughout.

Consider `O=C(OCc1cc(=O)c(O)co1)c1ccc2nc(NC(=O)c3cc(Br)c(Br)[nH]3)sc2c1` [Example 39, (5-hydroxy-4-oxo-4H-pyran-2-yl)methyl 2-(4,5-dibromo-1H-pyrrole-2-carboxamido)benzo[d]thiazole-6-carboxylate], for which, on E. coli DNA gyrase, the 50% inhibitory concentration (IC50) amounted to 1400 ± 20 nM. The MIC with S. aureus ATCC 29213, in the assay on E. faecium ATCC 35667 and in the assay on E. coli ATCC 25922 was greater than 64 µg/mL throughout.

For the compound `O=C(OCc1cc(=O)c(O)c[nH]1)c1ccc2nc(NC(=O)c3cc(Br)c(Br)[nH]3)sc2c1` [Example 40, (5-hydroxy-4-oxo-1,4-dihydropyridin-2-yl)methyl 2-(4,5-dibromo-1H-pyrrole-2-carboxamido)benzo[d]thiazole-6-carboxylate], the IC50 at E. coli DNA gyrase came out at 1700 ± 360 nM. Moreover, the MIC in the assay with S. aureus ATCC 29213, in the assay with E. faecium ATCC 35667 and in the assay on E. coli ATCC 25922 was greater than 64 µg/mL throughout.

`Cc1[nH]c(C(=O)N(c2nc3ccc(C(=O)O)cc3s2)C(C)C)c(Cl)c1Cl` [Example 41, 2-(3,4-dichloro-N-isopropyl-5-methyl-1H-pyrrole-2-carboxamido)benzo[d]thiazole-6-carboxylic acid] yielded an IC50 at E. coli DNA gyrase of 320 ± 70 nM. For the same compound, the MIC was 32 µg/mL (≈ 77.6 µM) in the assay with E. faecalis ATCC 29212, 32 µg/mL (≈ 77.6 µM) in the assay with S. aureus ATCC 29213 and no less than 32 µg/mL in the assay on E. coli ATCC 25922.

In the case of `Cc1[nH]c(C(=O)N(c2nc3ccc(C(=O)O)cc3s2)C2CC2)c(Cl)c1Cl` [Example 42, 2-(3,4-dichloro-N-cyclopropyl-5-methyl-1H-pyrrole-2-carboxamido)benzo[d]thiazole-6-carboxylic acid], the half-maximal inhibitory concentration (IC50) on E. coli DNA gyrase is 24 ± 1 nM. Besides, the MIC in the assay on E. faecalis ATCC 29212 is 0.25 µg/mL (≈ 0.609 µM); in the assay with S. aureus ATCC 29213, 2 µg/mL (≈ 4.87 µM); in the assay on E. coli ATCC 25922 it was greater than 64 µg/mL.

The compound `CCN(C(=O)c1[nH]c(C)c(Cl)c1Cl)c1nc2ccc(C(=O)O)cc2s1` [Example 43, 2-(3,4-dichloro-N-ethyl-5-methyl-1H-pyrrole-2-carboxamido)benzo[d]thiazole-6-carboxylic acid] gave an IC50 at E. coli DNA gyrase of 7.2 ± 2 nM. Moreover, the values for the MIC in the assay on E. faecalis ATCC 29212, in the assay with S. aureus ATCC 29213 and in the assay with E. coli ATCC 25922 were 0.13 µg/mL (≈ 0.326 µM), 0.13 µg/mL (≈ 0.326 µM) and 32 µg/mL (≈ 80.3 µM), respectively.

`Cc1[nH]c(C(=O)Nc2nc3ccc(C(=O)O)cc3s2)c(Cl)c1Br` [Example 45, 2-(4-bromo-3-chloro-5-methyl-1H-pyrrole-2-carboxamido) benzo[d]thiazole-6-carboxylic acid] returned an IC50 at E. coli DNA gyrase of less than 5 nM. Also, the MIC was 0.0625 µg/mL (≈ 0.151 µM) with E. faecalis ATCC 29212, 0.13 µg/mL (≈ 0.314 µM) in the assay with S. aureus ATCC 29213 and greater than 64 µg/mL in the assay on E. coli ATCC 25922.
